Reference: patent US6613747B2, “6-O-carbamoyl ketolide antibacterials” (Ortho-McNeil Pharmaceutical, Inc., priority 2000, dated 2003)
Converted amounts (≈) assume the structure as drawn. Like-named read-outs stand apart in the source and are kept apart here.

Legend:
Test in all cases: MIC, microdilution broth method (NCCLS)
Assay type in all cases: cell-based
[1] = system: S. pneumoniae ATCC49619; settings: D: S. pneumoniae ATCC49619, 35° C., 16-20 hours
Procedure: (§1) Minimal inhibitory concentration (MIC) has been an indicator of in vitro antibacterial activity widely used in the art. The in vitro antimicrobial activity of the compounds was determined by the microdilution broth method following the test method from the National Committee for Clinical Laboratory Standards (NCCLS). This method is described in the NCCLS Document M7-A4, Vol. 17, No. 2, “Methods for Dilution Antimicrobial Susceptibility Test for Bacteria that Grow Aerobically—Fourth Edition”, which is incorporated herein by reference.
(§2) In this method two-fold serial dilutions of drug in cation adjusted Mueller-Hinton broth are added to wells in microdilution trays. The test organisms are prepared by adjusting the turbidity of actively growing broth cultures so that the final concentration of test organism after it is added to the wells is approximately 5×10^4 CFU/well.
(§3) Following inoculation of the microdilution trays, the trays are incubated at 35° C. for 16-20 hours and then read. […] The amount of growth in the wells containing the test compound is compared with the amount of growth in the growth-control wells (no test compound) used in each tray. As set forth in Table 1, compounds of the present invention were tested against a variety of Gram positive and Gram negative pathogenic bacteria resulting in a range of activities depending on the organism tested.

[2] = system: E. faecalis ATCC29212; settings: C: E. faecalis ATCC29212, 35° C., 16-20 hours
Procedure: as §1, §2, §3

[3] = system: H. influenzae ATCC49247; settings: E: H. influenzae ATCC49247, 35° C., 16-20 hours
Procedure: as §1, §2, §3

[4] = system: E. coli OC2605; settings: A: E. coli OC2605, 35° C., 16-20 hours
Procedure: as §1, §2, §3

[5] = system: S. aureus ATCC29213; settings: B: S. aureus ATCC29213, 35° C., 16-20 hours
Procedure: as §1, §2, §3

[6] = Enterococcus faecalis, read-out: MIC
[7] = Escherichia coli, read-out: MIC
[8] = Staphylococcus aureus, read-out: MIC

Row | SMILES | MIC [1] | MIC [2] | MIC [3] | MIC [4] | MIC [5] | MIC ([1]; Streptococcus pneumoniae, read-out: MIC) | MIC [2, 6] | MIC [4, 7] | MIC [5, 8] | MIC ([3]; Haemophilus influenzae, read-out: MIC)
1 | CC[C@H]1OC(=O)[C@H](C)C(=O)[C@H](C)[C@@H](O[C@@H]2O[C@H](C)C[C@H](N(C)C)[C@H]2O)[C@](C)(OC(=O)NCC=C(c2ccccc2)c2ccccc2)C[C@@H](C)C(=O)[C@H](C)[C@H]2NC(=O)O[C@@]21C [Compound 54] | 0.12 µg/mL (≈ 0.144 µM) | 0.5 µg/mL (≈ 0.6 µM) | 2 µg/mL (≈ 2.4 µM) | >16 µg/mL | 1 µg/mL (≈ 1.2 µM) |  |  |  |  | 
2 | CC[C@H]1OC(=O)[C@H](C)C(=O)[C@H](C)[C@@H](O[C@@H]2O[C@H](C)C[C@H](N(C)C)[C@H]2O)[C@](C)(OC(=O)NC/C=C/c2cccc3cccnc23)C[C@@H](C)C(=O)[C@H](C)[C@H]2NC(=O)O[C@@]21C [Compound 46] |  | 0.06 µg/mL (≈ 0.0742 µM) | 2 µg/mL (≈ 2.47 µM) | 16 µg/mL (≈ 19.8 µM) | 0.25 µg/mL (≈ 0.309 µM) |  |  |  |  | 
3 | CC[C@H]1OC(=O)[C@H](C)C(=O)[C@H](C)[C@@H](O[C@@H]2O[C@H](C)C[C@H](N(C)C)[C@H]2O)[C@](C)(OC(=O)NC/C=C/c2cccc(-n3cccn3)n2)C[C@@H](C)C(=O)[C@H](C)[C@H]2NC(=O)O[C@@]21C [Compound 48] |  | 0.12 µg/mL (≈ 0.145 µM) | 4 µg/mL (≈ 4.85 µM) | >16 µg/mL | 0.5 µg/mL (≈ 0.606 µM) |  |  |  |  | 
4 | CC[C@H]1OC(=O)[C@H](C)C(=O)[C@H](C)[C@@H](O[C@@H]2O[C@H](C)C[C@H](N(C)C)[C@H]2O)[C@](C)(OC(=O)NC/C=C/c2cccc(-c3ccccn3)c2)C[C@@H](C)C(=O)[C@H](C)[C@H]2NC(=O)O[C@@]21C [Compound 36] | ≦0.015 μg/mL | 0.03 µg/mL (≈ 0.0359 µM) |  | 8 µg/mL (≈ 9.58 µM) | 0.12 µg/mL (≈ 0.144 µM) |  |  |  |  | 
5 | CC[C@H]1OC(=O)[C@H](C)C(=O)[C@H](C)[C@@H](O[C@@H]2O[C@H](C)C[C@H](N(C)C)[C@H]2O)[C@](C)(OC(N)=O)C[C@@H](C)C(=O)[C@H](C)[C@H]2NC(=O)O[C@@]21C [Compound 6] | 0.12 µg/mL (≈ 0.187 µM) | 1 µg/mL (≈ 1.56 µM) |  | >16 µg/mL | 4 µg/mL (≈ 6.23 µM) |  |  |  |  | 
6 | CC[C@H]1OC(=O)[C@H](C)C(=O)[C@H](C)[C@@H](O[C@@H]2O[C@H](C)C[C@H](N(C)C)[C@H]2O)[C@](C)(OC(=O)NCc2ccc(Br)cc2)C[C@@H](C)C(=O)[C@H](C)[C@H]2NC(=O)O[C@@]21C [Compound 5] | 0.03 µg/mL (≈ 0.037 µM) | 0.25 µg/mL (≈ 0.308 µM) |  | >16 µg/mL | 0.5 µg/mL (≈ 0.617 µM) |  |  |  |  | 
7 | CC[C@H]1OC(=O)[C@H](C)C(=O)[C@H](C)[C@@H](O[C@@H]2O[C@H](C)C[C@H](N(C)C)[C@H]2O)[C@](C)(OC(=O)NC/C=C/c2ccnc3ccccc23)C[C@@H](C)C(=O)[C@H](C)[C@H]2NC(=O)O[C@@]21C [Compound 34] | ≦0.015 μg/mL | 0.06 µg/mL (≈ 0.0742 µM) |  | 8 µg/mL (≈ 9.89 µM) | 0.12 µg/mL (≈ 0.148 µM) |  |  |  |  | 
8 | CC[C@H]1OC(=O)[C@H](C)C(=O)[C@H](C)[C@@H](O[C@@H]2O[C@H](C)C[C@H](N(C)C)[C@H]2O)[C@](C)(OC(=O)NCc2ccccc2)C[C@@H](C)C(=O)[C@H](C)[C@H]2NC(=O)O[C@@]21C [Compound 1] | 0.03 µg/mL (≈ 0.041 µM) | 0.12 µg/mL (≈ 0.164 µM) |  | >16 µg/mL | 4 µg/mL (≈ 5.47 µM) |  |  |  |  | 
9 | CC[C@H]1OC(=O)[C@H](C)C(=O)[C@H](C)[C@@H](O[C@@H]2O[C@H](C)C[C@H](N(C)C)[C@H]2O)[C@](C)(OC(=O)NCc2cccc(-c3ccccn3)c2)C[C@@H](C)C(=O)[C@H](C)[C@H]2NC(=O)O[C@@]21C [Compound 37] | 0.03 µg/mL (≈ 0.0371 µM) | 0.12 µg/mL (≈ 0.148 µM) |  | 16 µg/mL (≈ 19.8 µM) | 0.5 µg/mL (≈ 0.618 µM) |  |  |  |  | 

More lines, now with the values ahead:

Row | MIC [1] | MIC [2] | MIC [3] | MIC [4] | MIC [5] | MIC ([1]; Streptococcus pneumoniae, read-out: MIC) | MIC [2, 6] | MIC [4, 7] | MIC [5, 8] | MIC ([3]; Haemophilus influenzae, read-out: MIC) | SMILES
10 |  |  |  |  |  | 0.06 µg/mL (≈ 0.0718 µM) | 0.06 µg/mL (≈ 0.0718 µM) | 16 µg/mL (≈ 19.1 µM) | 0.12 µg/mL (≈ 0.144 µM) |  | CC[C@H]1OC(=O)[C@H](C)C(=O)[C@H](C)[C@@H](O[C@@H]2O[C@H](C)C[C@H](N(C)C)[C@H]2O)[C@](C)(OC(=O)NC/C=C/c2ccc(-c3ncccn3)cc2)C[C@@H](C)C(=O)[C@H](C)[C@H]2NC(=O)O[C@@]21C [Compound 32, Carbamic acid, [(2E)-3-[4-(2-pyrimidinyl)phenyl]-2-propenyl]-, (3aS,4R,7R,9R,10R,11R,13R,15R,15aR)-4-ethyltetradecahydro-3a,7,9,11,13,15-hexamethyl-2,6,8,14-tetraoxo-10-[[3,4,6-trideoxy-3-(dimethylamino)-β-D-xylo-hexopyranosyl]oxy]-2H-oxacyclotetradecino[4,3-d]oxazol-11-yl ester]
11 |  |  |  |  |  |  | 0.25 µg/mL (≈ 0.298 µM) | > 16 µg/mL | 1 µg/mL (≈ 1.19 µM) | 2 µg/mL (≈ 2.39 µM) | CC[C@H]1OC(=O)[C@H](C)[C@@H](O)[C@H](C)[C@@H](O[C@@H]2O[C@H](C)C[C@H](N(C)C)[C@H]2O)[C@](C)(OC(=O)NC/C=C/c2ccc(-c3ncccn3)cc2)C[C@@H](C)C(=O)[C@H](C)[C@H]2NC(=O)O[C@@]21C [Compound 95]
12 | ≦0.015 μg/mL | 0.06 µg/mL (≈ 0.0727 µM) |  | 8 µg/mL (≈ 9.7 µM) | 0.12 µg/mL (≈ 0.145 µM) |  |  |  |  |  | CC[C@H]1OC(=O)[C@H](C)C(=O)[C@H](C)[C@@H](O[C@@H]2O[C@H](C)C[C@H](N(C)C)[C@H]2O)[C@](C)(OC(=O)NC/C=C/c2ccc(-n3ccnn3)cc2)C[C@@H](C)C(=O)[C@H](C)[C@H]2NC(=O)O[C@@]21C [Compound 33]
13 | 2 µg/mL (≈ 2.35 µM) | 4 µg/mL (≈ 4.71 µM) | >16 µg/mL | >16 µg/mL |  |  |  |  |  |  | CC[C@H]1OC(=O)[C@H](C)C(=O)[C@H](C)[C@@H](O[C@@H]2O[C@H](C)C[C@H](N(C)C)[C@H]2O)[C@](C)(OC(=O)NC2CC(c3ccc(-c4ncccn4)cc3)C2)C[C@@H](C)C(=O)[C@H](C)[C@H]2NC(=O)O[C@@]21C (stereo partly shown) [Compound 136]
14 |  | 0.12 µg/mL (≈ 0.141 µM) | 1 µg/mL (≈ 1.17 µM) | 8 µg/mL (≈ 9.37 µM) | 0.5 µg/mL (≈ 0.585 µM) |  |  |  |  |  | CCC1OC(=O)C(C)(F)C(=O)C(C)C(OC2OC(C)CC(N(C)C)C2O)C(C)(OC(=O)NCC=Cc2ccc(-c3cccnn3)cc2)CC(C)C(=O)C(C)C2NC(=O)OC12C (stereo not shown) [Compound 99]
15 |  | 0.12 µg/mL (≈ 0.141 µM) | 2 µg/mL (≈ 2.34 µM) | 16 µg/mL (≈ 18.7 µM) | 0.5 µg/mL (≈ 0.585 µM) |  |  |  |  |  | CCC1OC(=O)C(C)(F)C(=O)C(C)C(OC2OC(C)CC(N(C)C)C2O)C(C)(OC(=O)NCC=Cc2ccc(-c3ccncn3)cc2)CC(C)C(=O)C(C)C2NC(=O)OC12C (stereo not shown) [Compound 100]
16 | ≦0.015 μg/mL | 0.03 µg/mL (≈ 0.0371 µM) |  | 8 µg/mL (≈ 9.89 µM) | 0.12 µg/mL (≈ 0.148 µM) |  |  |  |  |  | CC[C@H]1OC(=O)[C@H](C)C(=O)[C@H](C)[C@@H](O[C@@H]2O[C@H](C)C[C@H](N(C)C)[C@H]2O)[C@](C)(OC(=O)NC/C=C/c2ccc3ncccc3c2)C[C@@H](C)C(=O)[C@H](C)[C@H]2NC(=O)O[C@@]21C [Compound 38]
17 | 0.12 µg/mL (≈ 0.145 µM) | 0.5 µg/mL (≈ 0.606 µM) |  | 16 µg/mL (≈ 19.4 µM) | 1 µg/mL (≈ 1.21 µM) |  |  |  |  |  | CC[C@H]1OC(=O)[C@H](C)C(=O)[C@H](C)[C@@H](O[C@@H]2O[C@H](C)C[C@H](N(C)C)[C@H]2O)[C@](C)(OC(=O)NC/C=C/c2ccc(-n3cnnc3)cc2)C[C@@H](C)C(=O)[C@H](C)[C@H]2NC(=O)O[C@@]21C [Compound 40]
18 |  | 0.06 µg/mL (≈ 0.0742 µM) | 1 µg/mL (≈ 1.24 µM) | 16 µg/mL (≈ 19.8 µM) | 0.25 µg/mL (≈ 0.309 µM) |  |  |  |  |  | CC[C@H]1OC(=O)[C@H](C)C(=O)[C@H](C)[C@@H](O[C@@H]2O[C@H](C)C[C@H](N(C)C)[C@H]2O)[C@](C)(OC(=O)NC/C=C/c2ccc3cccnc3c2)C[C@@H](C)C(=O)[C@H](C)[C@H]2NC(=O)O[C@@]21C [Compound 47]
